# Measured values as given in patent US20150246938A1, “NOVEL OLEFIN DERIVATIVE” (SHIONOGI & CO., LTD., priority 2011, published 2015).
# Target: T1, recombinant human ACC2 (Homo sapiens, UniProt O00763)
# T1 construct: a cDNA encoding human ACC2 (27-2458) was cloned from human kidney cDNA library (Clontech); His-tag (N); made in house; host or cells: Sf-9 insect cells (Bac-to-Bac baculovirus)
# Assay: Measurement of inhibitory activity on human ACC2 (MALDI-TOF MS, acetyl CoA to malonyl CoA conversion)
# Type: biochemical
# Conditions: inhibition activity on human ACC2, Table 79; read-out: IC50
# Protocol: To express human ACC2, Sf-9 cells were infected with recombinant baculovirus. After infected cells were disrupted, the filtrated lysate was subjected to Ni-affinity chromatography and anion-exchange chromatography. The fractions containing human ACC2 protein were pooled as recombinant human ACC2 solution.
# Recombinant human ACC1 and recombinant human ACC2, which were prepared by the method mentioned above, were preincubated with assay buffer solution (50 mM HEPES-KOH (pH 7.4), 10 mM magnesium chloride, 6-10 mM potassium citrate, 4 mM reduced form of glutathione, 1.5 mg/ml bovine serum albumin) for one hour. Then, 0.2 μL of each this invention compound solution (in DMSO) were dispensed to 384-well microplate, 5 μL of the preincubated enzyme solution and 5 μL of substrate solution (50 mM HEPES-KOH (pH 7.4), 1 mM ATP, 0.8 mM acetyl CoA and 25-50 mM potassium bicarbonate) were added to microplate. After centrifugation and shaking, the reaction mixtures were incubated in a humidified box at room temperature for 1 to 3 hours. After the incubation, the enzyme reactions were stopped by the addition of EDTA. Then, after the samples were cocrystallized with CHCA (α-cyano-4-hydroxy cinnamic acid) matrices on MALDI target plate, by using the matrix assist laser deionization time-of-flight mass spectrometer (MALDI-TOF MS), samples were measured in reflector negative mode. Deprotonated ions of acetyl CoA (AcCoA) of substrate and malonyl CoA (MalCoA) of the reaction product were detected, then, the conversion rates of acetyl CoA to malonyl CoA was calculated by the intensity of [MalCoA-H]-/(Intensity of [MalCoA-H]-+Intensity of [AcCoA-H]-) using each signal strength. […] In addition, potassium citrate concentrations in assay buffer solution, potassium hydrogen carbonate concentrations in substrate solution and incubation time were adjusted by each lot of enzyme.
# T1 sequence (O00763 27-2458): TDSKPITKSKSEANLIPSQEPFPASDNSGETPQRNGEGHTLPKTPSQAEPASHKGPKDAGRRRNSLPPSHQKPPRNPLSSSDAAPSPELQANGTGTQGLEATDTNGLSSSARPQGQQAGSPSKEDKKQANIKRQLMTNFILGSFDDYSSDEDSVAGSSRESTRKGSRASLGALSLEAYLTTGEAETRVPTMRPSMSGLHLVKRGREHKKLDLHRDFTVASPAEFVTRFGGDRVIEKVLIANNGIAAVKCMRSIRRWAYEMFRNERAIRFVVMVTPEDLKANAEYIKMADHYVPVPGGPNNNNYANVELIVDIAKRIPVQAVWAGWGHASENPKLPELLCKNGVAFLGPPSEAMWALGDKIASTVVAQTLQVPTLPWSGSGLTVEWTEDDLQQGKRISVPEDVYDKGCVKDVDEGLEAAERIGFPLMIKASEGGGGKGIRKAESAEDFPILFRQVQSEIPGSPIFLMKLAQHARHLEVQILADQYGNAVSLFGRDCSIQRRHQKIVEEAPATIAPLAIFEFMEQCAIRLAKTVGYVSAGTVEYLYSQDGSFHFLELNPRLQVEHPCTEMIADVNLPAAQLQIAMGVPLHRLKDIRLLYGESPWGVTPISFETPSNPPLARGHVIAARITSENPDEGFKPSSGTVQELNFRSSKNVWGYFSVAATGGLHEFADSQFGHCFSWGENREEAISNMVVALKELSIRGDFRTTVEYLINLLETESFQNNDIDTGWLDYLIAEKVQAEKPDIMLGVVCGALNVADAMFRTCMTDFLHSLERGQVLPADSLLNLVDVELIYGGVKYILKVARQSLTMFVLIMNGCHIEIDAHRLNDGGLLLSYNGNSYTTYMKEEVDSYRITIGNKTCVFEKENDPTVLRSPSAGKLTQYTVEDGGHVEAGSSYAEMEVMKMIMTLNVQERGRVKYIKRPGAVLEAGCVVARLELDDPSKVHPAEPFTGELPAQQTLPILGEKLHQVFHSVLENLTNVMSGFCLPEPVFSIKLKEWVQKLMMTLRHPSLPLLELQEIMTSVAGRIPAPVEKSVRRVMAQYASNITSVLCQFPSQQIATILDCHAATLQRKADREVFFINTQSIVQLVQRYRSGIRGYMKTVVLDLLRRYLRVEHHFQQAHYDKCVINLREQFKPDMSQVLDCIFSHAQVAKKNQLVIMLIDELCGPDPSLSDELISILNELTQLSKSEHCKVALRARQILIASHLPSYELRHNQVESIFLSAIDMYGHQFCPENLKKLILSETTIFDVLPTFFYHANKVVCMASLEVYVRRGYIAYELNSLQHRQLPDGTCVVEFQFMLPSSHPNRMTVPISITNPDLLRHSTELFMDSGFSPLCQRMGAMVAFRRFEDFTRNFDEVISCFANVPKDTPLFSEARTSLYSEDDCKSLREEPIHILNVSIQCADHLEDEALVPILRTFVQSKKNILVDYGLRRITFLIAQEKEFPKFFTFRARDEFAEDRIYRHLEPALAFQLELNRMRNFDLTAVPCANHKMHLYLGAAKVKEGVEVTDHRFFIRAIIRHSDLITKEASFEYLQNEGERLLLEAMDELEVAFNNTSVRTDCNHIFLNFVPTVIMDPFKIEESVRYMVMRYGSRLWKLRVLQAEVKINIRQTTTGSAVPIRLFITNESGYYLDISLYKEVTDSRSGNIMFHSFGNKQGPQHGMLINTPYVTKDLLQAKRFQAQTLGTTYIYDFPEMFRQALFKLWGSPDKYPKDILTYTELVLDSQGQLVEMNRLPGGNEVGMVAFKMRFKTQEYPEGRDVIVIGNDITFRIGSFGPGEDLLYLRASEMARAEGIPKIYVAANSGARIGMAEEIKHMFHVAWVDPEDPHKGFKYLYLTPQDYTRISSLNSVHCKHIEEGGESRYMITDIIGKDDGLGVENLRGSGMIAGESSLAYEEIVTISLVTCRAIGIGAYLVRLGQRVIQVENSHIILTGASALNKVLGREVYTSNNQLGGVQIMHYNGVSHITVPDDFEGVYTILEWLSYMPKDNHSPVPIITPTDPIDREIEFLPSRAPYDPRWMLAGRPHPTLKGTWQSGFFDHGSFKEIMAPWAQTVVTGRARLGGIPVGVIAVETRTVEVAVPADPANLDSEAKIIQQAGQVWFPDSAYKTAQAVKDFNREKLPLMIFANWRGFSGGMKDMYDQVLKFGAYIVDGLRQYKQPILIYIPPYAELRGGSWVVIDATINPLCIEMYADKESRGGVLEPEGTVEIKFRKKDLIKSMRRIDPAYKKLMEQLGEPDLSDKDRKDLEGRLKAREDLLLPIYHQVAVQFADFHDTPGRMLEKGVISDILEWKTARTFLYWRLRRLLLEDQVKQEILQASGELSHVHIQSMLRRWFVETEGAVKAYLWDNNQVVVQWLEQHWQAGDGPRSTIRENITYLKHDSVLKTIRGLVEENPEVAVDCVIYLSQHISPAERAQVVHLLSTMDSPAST
row,IC50 [nM],Compound
1,16,CCCOc1ccc(Oc2ncc(/C=C/[C@H](C)NC(C)=O)s2)c(Cl)c1 [Compound I-2]
2,78,CC(=O)N[C@@H](C)/C=C/c1cnc(Oc2ccc(OCC3CC3)cc2C#N)s1 [Compound I-6]
3,31,CC(=O)N[C@@H](C)/C=C/c1cnc(Oc2cccc(OCC3CC3)c2Cl)s1 [Compound I-7]
4,82,CC(=O)N[C@@H](C)/C=C/c1cnc(Oc2cccc(OC(C)C)c2C)s1 [Compound I-9]
5,52,CCOc1ccc(Oc2ccc(/C=C/[C@H](C)NC(C)=O)cn2)c(Cl)c1 [Compound I-13]
6,6.9,CC(=O)N[C@@H](C)/C=C/c1ccc(Oc2ccc(OCC3CC3)cc2Cl)nc1 [Compound I-14]
7,71,CCOc1ccc(COc2ccc(/C=C/[C@H](C)NC(C)=O)cn2)cc1 [Compound I-15]
8,31,CCOc1ccc(Oc2ccc(/C=C/[C@H](C)NC(C)=O)cn2)cc1 [Compound I-16]
9,5.2,CC(=O)N[C@@H](C)/C=C/c1ccc(Oc2ccc(OCC3CC3)c(Cl)c2)nc1 [Compound I-23]
10,4.4,CC(=O)N[C@@H](C)/C=C/c1ccc(Oc2ccc(NCC3CC3)c(Cl)c2)nc1 [Compound I-24]
11,1200,COc1ccc(Cl)c(Oc2ccc(/C=C/[C@H](C)NC(C)=O)cn2)c1 [Compound I-27]
12,97,COc1cc(Cl)cc(Oc2ccc(/C=C/[C@H](C)NC(C)=O)cn2)c1 [Compound I-28]
13,94,COc1cccc(Oc2ccc(/C=C/[C@H](C)NC(C)=O)cn2)c1Cl [Compound I-29]
14,14,CC(=O)N[C@@H](C)/C=C/c1ccc(Oc2ccc(N3CCCC3)cc2Cl)nc1 [Compound I-32]
15,12,CC(=O)N[C@@H](C)/C=C/c1ccc(Oc2ccc(OCC3CC3)nc2)nc1 [Compound I-33]
16,7100,COc1cncc(Oc2ccc(/C=C/[C@H](C)NC(C)=O)cn2)c1 [Compound I-34]
17,1100,CCOc1ccc(OCc2ccc(/C=C/[C@H](C)NC(C)=O)cn2)c(Cl)c1 [Compound I-35]
18,6.5,CC(=O)N[C@@H](C)/C=C/c1ccc(Oc2ccc(OCC(C)C)cc2Cl)nc1 [Compound I-36]
19,37,CC(=O)N[C@@H](C)/C=C/c1ccc(Oc2ccc(OC(C)C)cc2Cl)nc1 [Compound I-37]
20,9.1,CCCOc1ccc(Oc2ccc(/C=C/[C@H](C)NC(C)=O)cn2)c(Cl)c1 [Compound I-38]

row,IC50 [nM],Compound
1,11,CC(=O)N[C@@H](C)/C=C/c1ccc(Oc2ccc(OC3CCC3)cc2Cl)nc1 [Compound I-39]
2,80,CC(=O)N[C@@H](C)/C=C/c1ccc(Oc2cc(Cl)cc(OCC3CC3)c2)nc1 [Compound I-43]
3,83,CCOc1cc(Cl)cc(Oc2ccc(/C=C/[C@H](C)NC(C)=O)cn2)c1 [Compound I-45]
4,25,CC(=O)N[C@@H](C)/C=C/c1ccc(Oc2cccc(OC(C)C)c2Cl)nc1 [Compound I-47]
5,37,CCOc1cccc(Oc2ccc(/C=C/[C@H](C)NC(C)=O)cn2)c1Cl [Compound I-48]
6,72,CC(=O)N[C@@H](C)/C=C/c1ccc(Oc2cccc(OC(C)C)c2)nc1 [Compound I-49]
7,54,CC(=O)N[C@@H](C)/C=C/c1cnc(Oc2ccc(OCC3CC3)cc2Cl)nc1 [Compound I-52]
8,940,CC(=O)N[C@@H](C)/C=C/c1cnc(Oc2ccc(NC(=O)OC(C)(C)C)cc2Cl)nc1 [Compound I-53]
9,430,CC(=O)N[C@@H](C)/C=C/c1cnc(Oc2ccc(NCC3CC3)cc2Cl)nc1 [Compound I-54]
10,4500,CC(=O)N[C@@H](C)/C=C/c1cnc(Oc2ccc(NC(C)C)cc2Cl)nc1 [Compound I-55]
11,310,CC(=O)N[C@@H](C)/C=C/c1ccc(Oc2ccc(OCC3CC3)cc2Cl)nn1 [Compound I-56]
12,2.2,CC(=O)N[C@@H](C)/C=C/c1ccc(Oc2ccc(OCC3CC3)cc2Cl)cc1 [Compound I-57]
13,950,CC(=O)N[C@@H](C)/C=C/c1cnc(N2CCc3cc(OCC4CC4)ccc32)s1 [Compound I-59]
14,310,CCOc1ccc(C(F)(F)c2ccc(/C=C/[C@H](C)NC(C)=O)cn2)c(Cl)c1 [Compound I-62]
15,830,CC(=O)N[C@@H](C)/C=C/c1cnn(Cc2ccc(OCC3CC3)cc2Cl)c1 [Compound I-63]
16,5900,CC(=O)N[C@@H](C)/C=C/c1cnn(Cc2ccc(OCC3CC3)cc2)c1 [Compound I-64]
17,5700,CC(=O)N[C@@H](C)/C=C/c1cnn(CCc2ccc(OCC3CC3)cc2)c1 [Compound I-66]
18,1200,CC(=O)N[C@@H](C)/C=C/c1cnn(Cc2ccc(OCC3CC3)cc2F)c1 [Compound I-67]
19,470,CC(=O)N[C@@H](C)/C=C/c1cnn(Cc2c(Cl)cc(OCC3CC3)cc2Cl)c1 [Compound I-69]
20,230,CSCCC(=O)N[C@@H](C)/C=C/c1cnc(Oc2ccc(OCC3CC3)cc2Cl)s1 [Compound I-72]

row,IC50 [nM],Compound
1,53,C[C@@H](/C=C/c1cnc(Oc2ccc(OCC3CC3)cc2Cl)s1)NC(=O)CC#N [Compound I-73]
2,57,C[C@@H](/C=C/c1cnc(Oc2ccc(OCC3CC3)cc2Cl)s1)NC(=O)C1(C(N)=O)CC1 [Compound I-74]
3,30,C[C@@H](/C=C/c1cnc(Oc2ccc(OCC3CC3)cc2Cl)s1)NC(=O)C1CC1 [Compound I-76]
4,48,C[C@@H](/C=C/c1cnc(Oc2ccc(OCC3CC3)cc2Cl)s1)NC(=O)Cc1cccnc1 [Compound I-77]
5,550,CC(=O)NCC(=O)N[C@@H](C)/C=C/c1cnc(Oc2ccc(OCC3CC3)cc2Cl)s1 [Compound I-78]
6,160,C[C@@H](/C=C/c1cnc(Oc2ccc(OCC3CC3)cc2Cl)s1)NC(=O)CC(F)(F)F [Compound I-82]
7,48,C[C@@H](/C=C/c1cnc(Oc2ccc(OCC3CC3)cc2Cl)s1)NC(=O)C1(C)CC1 [Compound I-83]
8,460,C[C@@H](/C=C/c1cnc(Oc2ccc(OCC3CC3)cc2Cl)s1)NC(=O)C1CCOCC1 [Compound I-84]
9,440,C[C@@H](/C=C/c1cnc(Oc2ccc(OCC3CC3)cc2Cl)s1)NC(=O)CCCN1CCCC1=O [Compound I-86]
10,350,C[C@@H](/C=C/c1cnc(Oc2ccc(OCC3CC3)cc2Cl)s1)NC(=O)CCCn1cncn1 [Compound I-87]
11,890,C[C@@H](/C=C/c1cnc(Oc2ccc(OCC3CC3)cc2Cl)s1)NC(=O)CCCN1CCCC1 [Compound I-88]
12,140,COC(=O)CCCC(=O)N[C@@H](C)/C=C/c1cnc(Oc2ccc(OCC3CC3)cc2Cl)s1 [Compound I-94]
13,120,C[C@@H](/C=C/c1cnc(Oc2ccc(OCC3CC3)cc2Cl)s1)NC(=O)C1(C#N)CC1 [Compound I-97]
14,970,CC(C)COCC(=O)N[C@@H](C)/C=C/c1cnc(Oc2ccc(OCC3CC3)cc2Cl)s1 [Compound I-103]
15,450,COCCOCC(=O)N[C@@H](C)/C=C/c1cnc(Oc2ccc(OCC3CC3)cc2Cl)s1 [Compound I-104]
16,200,C[C@@H](/C=C/c1cnc(Oc2ccc(OCC3CC3)cc2Cl)s1)NC(=O)CN1C(=O)CCC1=O [Compound I-105]
17,440,C[C@@H](/C=C/c1cnc(Oc2ccc(OCC3CC3)cc2Cl)s1)NC(=O)CCCCCCNC(=O)OC(C)(C)C [Compound I-106]
18,480,COC(=O)c1ccn(CC(=O)N[C@@H](C)/C=C/c2cnc(Oc3ccc(OCC4CC4)cc3Cl)s2)n1 [Compound I-113]
19,150,C[C@@H](/C=C/c1cnc(Oc2ccc(OCC3CC3)cc2Cl)s1)NC(=O)CC(N)=O [Compound I-116]
20,38,CC(C)S(=O)(=O)NCCCCC(=O)N[C@@H](C)/C=C/c1cnc(Oc2ccc(OCC3CC3)cc2Cl)s1 [Compound I-117]

# Same assay, conditions: inhibition activity on human ACC2, Table 80; read-out: IC50
row,IC50 [nM],Compound
1,61,CC(C)S(=O)(=O)NCCCC(=O)N[C@@H](C)/C=C/c1cnc(Oc2ccc(OCC3CC3)cc2Cl)s1 [Compound I-119]
2,150,C[C@@H](/C=C/c1cnc(Oc2ccc(OCC3CC3)cc2Cl)s1)NC(=O)Cc1ccncc1 [Compound I-122]
3,180,C[C@@H](/C=C/c1cnc(Oc2ccc(OCC3CC3)cc2Cl)s1)NC(=O)Cn1ccnc1 [Compound I-123]
4,1400,CCN1CCN(CCC(=O)N[C@@H](C)/C=C/c2cnc(Oc3ccc(OCC4CC4)cc3Cl)s2)CC1 [Compound I-124]
5,320,C[C@@H](/C=C/c1cnc(Oc2ccc(OCC3CC3)cc2Cl)s1)NC(=O)CCO [Compound I-125]
6,920,C[C@@H](/C=C/c1cnc(Oc2ccc(OCC3CC3)cc2Cl)s1)NC(=O)[C@H]1CNC(=O)O1 [Compound I-133]
7,1800,CC(C)S(=O)(=O)NCCC(=O)N[C@@H](C)/C=C/c1cnc(Oc2ccc(OCC3CC3)cc2Cl)s1 [Compound I-134]
8,42,CC(=O)Nc1cc(C(=O)N[C@@H](C)/C=C/c2cnc(Oc3ccc(OCC4CC4)cc3Cl)s2)ccn1 [Compound I-135]
9,12,CCOC(=O)c1cc(C(=O)N[C@@H](C)/C=C/c2cnc(Oc3ccc(OCC4CC4)cc3Cl)s2)ccn1 [Compound I-136]
10,630,Cc1ccc(-c2cc(C(=O)N[C@@H](C)/C=C/c3cnc(Oc4ccc(OCC5CC5)cc4Cl)s3)ccn2)o1 [Compound I-137]
11,2300,Cc1nc(C)c(-c2cc(C(=O)N[C@@H](C)/C=C/c3cnc(Oc4ccc(OCC5CC5)cc4Cl)s3)ccn2)s1 [Compound I-138]
12,66,C[C@@H](/C=C/c1cnc(Oc2ccc(OCC3CC3)cc2Cl)s1)NC(=O)c1ccnc(-c2ncco2)c1 [Compound I-139]
13,800,C[C@@H](/C=C/c1cnc(Oc2ccc(OCC3CC3)cc2Cl)s1)NC(=O)c1cccc(C2=NCCO2)c1 [Compound I-143]
14,690,C[C@@H](/C=C/c1cnc(Oc2ccc(OCC3CC3)cc2Cl)s1)NC(=O)c1cccc(-c2ncco2)c1 [Compound I-144]
15,880,CC(=O)c1ccc(C(=O)N[C@@H](C)/C=C/c2cnc(Oc3ccc(OCC4CC4)cc3Cl)s2)s1 [Compound I-148]
16,2700,CCN1Cc2ccc(C(=O)N[C@@H](C)/C=C/c3cnc(Oc4ccc(OCC5CC5)cc4Cl)s3)cc2C1=O [Compound I-154]
